The term inhibition in vivo denotes the share of the control response that was lost under treatment. High values mean a response far below the control, low ones a response near the control. One may read the % inhibition as the relative decrease from the control value, in per cent. Higher therefore signals strong suppression.

Experimental findings from US5101048A, “β-D-phenylthioxylosides, their method of preparation and their use as therapeutic agents” (Fournier Industrie et Sante, priority 1988, dated 1992) are described below.

Experiment [1] in a line: Venous thrombosis: venous stasis under hypercoagulation (Wessler), thrombus removed and weighed. The experiment is classed as in vivo, male Wistar rats. The note with it: Rattus norvegicus, po; 12.5 mg/kg administered orally, suspension in PEG 400; thrombosis induced 4 hours after treatment. The procedure:
A venous stasis under hypercoagulation is produced according to the technique described by WESSLER et al. (J. Applied Physiol. 1959, p. 943-946). As in the technique described by J. HAUPMAN et al. (Thrombosis and Haemostasis 43(2), 1980, p. 118), the hypercoagulant used is a solution of activated factor X (Xa) supplied by Flow Laboratories (71 Knat per 12.5 ml of physiological serum).
The study is performed on unfasted male Wistar rats weighing 250 to 280 g, divided into groups of 10 animals each. The products to be tested are administered orally as a suspension in PEG 400. A thrombosis is induced 4 hours after this treatment and the thrombus formed is removed and weighed.
The results obtained at doses of 3 mg/kg or 12.5 mg/kg, administered orally, have been collated in Table II. The results obtained with the known products of the above-mentioned prior art have also been collated in this Table.

Assay in experiment [2]: as above
It counts as in vivo, male Wistar rats. The note with it: 50 mg/kg administered orally.

Molecules are shown by their SMILES.

For `O[C@@H]1[C@@H](O)[C@H](Sc2ccccc2)SC[C@H]1O` [Example 9, phenyl 1,5-dithio-β-D-xylopyranoside], the inhibition in vivo at 12.5 mg/kg in experiment [1] came to 11%. Further, the “% inhibition at 50 mg/kg (footnote)” value in experiment [2] is 82%.
